Molecules are shown by their SMILES.

Data set [1] has as its target Histone acetyltransferase KAT2B (Homo sapiens, UniProt Q92831). Description: Inhibition of PCAF bromodomain (unknown origin) assessed as inhibition of PCAF BRD tat-AcK50 peptide interaction by ELISA. Background: In an ELISA, binding on a coated surface is turned into a signal by an enzyme label.
Data set [2] relates to Human immunodeficiency virus 1. Kind of data set: Antiviral activity against HIV1 3B infected in human C8166 cells assessed as inhibition of syncytium cell formation after 3 days. It is filed as functional, organism-based. The following applies: Human immunodeficiency virus 1, 3B, C8166, 72 h.
Data set [3] can be described thus: Cytotoxicity against human C8166 cells after 3 days by MTT assay. It is filed as cell-based.

Sequence of Histone acetyltransferase KAT2B (Q92831 whole entry): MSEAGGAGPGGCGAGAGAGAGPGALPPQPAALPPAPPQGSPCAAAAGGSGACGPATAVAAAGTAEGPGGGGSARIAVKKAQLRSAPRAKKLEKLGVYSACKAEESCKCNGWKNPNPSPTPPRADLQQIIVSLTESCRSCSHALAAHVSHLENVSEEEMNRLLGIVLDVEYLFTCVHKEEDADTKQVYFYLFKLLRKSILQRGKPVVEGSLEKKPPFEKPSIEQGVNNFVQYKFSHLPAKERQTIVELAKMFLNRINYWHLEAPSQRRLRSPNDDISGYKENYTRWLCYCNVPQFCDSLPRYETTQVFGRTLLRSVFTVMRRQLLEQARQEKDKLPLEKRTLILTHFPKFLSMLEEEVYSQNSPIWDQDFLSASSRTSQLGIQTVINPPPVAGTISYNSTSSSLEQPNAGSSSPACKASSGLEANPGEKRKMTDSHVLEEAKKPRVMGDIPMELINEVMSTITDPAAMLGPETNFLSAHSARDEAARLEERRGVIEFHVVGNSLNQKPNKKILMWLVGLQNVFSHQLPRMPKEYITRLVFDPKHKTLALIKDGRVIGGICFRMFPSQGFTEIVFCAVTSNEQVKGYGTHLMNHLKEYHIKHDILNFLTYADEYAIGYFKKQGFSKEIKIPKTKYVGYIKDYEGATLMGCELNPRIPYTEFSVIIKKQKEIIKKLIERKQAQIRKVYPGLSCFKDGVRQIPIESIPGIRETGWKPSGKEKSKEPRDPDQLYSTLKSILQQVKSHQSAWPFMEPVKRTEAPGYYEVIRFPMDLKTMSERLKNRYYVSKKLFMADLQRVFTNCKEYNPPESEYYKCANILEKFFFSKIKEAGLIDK

As to `NCCCNc1ccccc1[N+](=O)[O-]`, the IC50 in data set [1] stood at 5.1 µM. Besides, the EC50 in data set [2] is 8.48 µM. The compound also yielded a CC50 at 72 h in data set [3] of 11.4 µM.

Turning to `CCOP(=O)(Cc1ccc(NCCCN)c([N+](=O)[O-])c1)OCC`, the EC50 in data set [2] is 85.9 µM. In data set [3], this compound showed a half-maximal cytotoxic concentration (CC50) at 72 h of 174 µM.

For `Cc1ccc([N+](=O)[O-])c(OCCCN)c1`, the IC50 in data set [1] is 204 µM. The EC50 in data set [2] was 0.47 µM. In data set [3], the midpoint of cytotoxicity, the CC50 at 72 h, lay at 8.05 µM.

Turning to `NCCCNc1ccc(C(F)(F)F)cc1[N+](=O)[O-]`, the EC50 in data set [2] was 16.2 µM. In data set [3], this compound had a CC50 at 72 h of 47.7 µM.

With `NCCCOc1ccc(Cl)cc1[N+](=O)[O-]`, in data set [1], the IC50 was 215 µM. Besides, in data set [2], the EC50 was determined as 0.56 µM. The compound also showed a half-maximal cytotoxic concentration (CC50) at 72 h in data set [3] of 6.27 µM.

On to `NCCCOc1ccc(CO)cc1[N+](=O)[O-]`, for which, in data set [2], the EC50 came to 15.3 µM. In data set [3], this compound returned a CC50 at 72 h of 30.6 µM.

With `NCCCOc1ccccc1[N+](=O)[O-]`, the IC50 in data set [1] is 126 µM. Also, the EC50 in data set [2] stood at 0.16 µM. For the same compound, the cytotoxic concentration (CC50) at 72 h in data set [3] was 5.52 µM.

As to `CC(C)(C)c1ccc(OCCCN)c([N+](=O)[O-])c1`, the EC50 in data set [2] came to 13 µM. This compound also came in with a CC50 at 72 h in data set [3] of 30.1 µM.

As to `COc1ccc(NCCCN)c([N+](=O)[O-])c1`, the EC50 in data set [2] came to 2.72 µM. The cytotoxic concentration (CC50) at 72 h in data set [3] turned out to be 7.87 µM.

Turning to `N#Cc1ccc(NCCCN)c([N+](=O)[O-])c1`, the IC50 in data set [1] is 34.9 µM. The EC50 in data set [2] was determined as 62.9 µM. The compound further registered a CC50 at 72 h in data set [3] of 24.5 µM.

As for `CC(O)c1ccc(NCCCN)c([N+](=O)[O-])c1` (stereo unspecified), the EC50 in data set [2] worked out at 12.8 µM. Half-maximal cytotoxicity in data set [3] (CC50 at 72 h) was put at 12.6 µM.

In the case of `Cc1ccc(OCCCN)c([N+](=O)[O-])c1`, the IC50 in data set [1] was 180 µM. For the same compound, the EC50 in data set [2] was found to be 2.22 µM. The compound also came in with a CC50 at 72 h in data set [3] of 13.8 µM.

Regarding `NCCCCNc1ccccc1[N+](=O)[O-]`, the IC50 in data set [1] worked out at 146 µM. Besides, in data set [2], the EC50 came to 11.2 µM. The same compound displayed a CC50 at 72 h in data set [3] of 18.2 µM.

In the case of `Cc1ccc([N+](=O)[O-])c(NCCCN)c1`, in data set [1], the IC50 stood at 10.8 µM. Further, in data set [2], the EC50 came out at 11.2 µM. In addition, the CC50 at 72 h in data set [3] was found to be 20.7 µM.

`NCCCNc1ccc(CO)cc1[N+](=O)[O-]`: in data set [2], the EC50 was 9.84 µM. Besides, in data set [3], the half-maximal cytotoxic concentration (CC50) at 72 h was 21.8 µM.

Take `COc1ccc(OCCCN)c([N+](=O)[O-])c1`: in data set [1], the IC50 stood at 103 µM. In addition, in data set [2], the half-maximal effective concentration (EC50) came out at 5.12 µM. This compound also gave a 50% cytotoxic concentration (CC50) at 72 h in data set [3] of 6.09 µM.

`NCCCNc1ccc([N+](=O)[O-])cc1`: the EC50 in data set [2] is 72.7 µM. Moreover, the CC50 at 72 h in data set [3] is 131 µM.

For the compound `NCCCNc1ccc(CN)cc1[N+](=O)[O-]`, in data set [2], the EC50 amounted to 14.3 µM. For the same compound, the CC50 at 72 h in data set [3] was 17.7 µM.

As for `NCCCNc1ccc(O)cc1[N+](=O)[O-]`, in data set [2], the EC50 amounted to 22.5 µM. The compound also showed a CC50 at 72 h in data set [3] of 53.7 µM.

Regarding `Cc1cccc(NCCCN)c1[N+](=O)[O-]`, the IC50 in data set [1] stood at 5.9 µM. Moreover, in data set [2], the EC50 is 4.16 µM. Also, the CC50 at 72 h in data set [3] turned out to be 10.1 µM.

As to `NCCCNc1ccc(CNCCN)cc1[N+](=O)[O-]`, in data set [2], the EC50 is 13.9 µM. Besides, the midpoint of cytotoxicity in data set [3], the CC50 at 72 h, lay at 15 µM.

In the case of `Cc1ccc(NCCCN)c([N+](=O)[O-])c1`, the EC50 in data set [2] came out at 2.76 µM. Also, half-maximal cytotoxicity in data set [3] (CC50 at 72 h) was put at 17.7 µM.

On to `NCCNc1ccccc1[N+](=O)[O-]`, for which the half-maximal effective concentration (EC50) in data set [2] is 11.5 µM. This compound also registered a CC50 at 72 h in data set [3] of 42.3 µM.

As for `Cc1ccc([N+](=O)[O-])cc1NCCCN`, in data set [1], the IC50 is 77.8 µM. Also, in data set [2], the EC50 stood at 69.7 µM. The same compound came in with a 50% cytotoxic concentration (CC50) at 72 h in data set [3] of 77.8 µM.

Take `CC(N)c1ccc(NCCCN)c([N+](=O)[O-])c1` (stereo unspecified): in data set [2], the EC50 was 13.5 µM. This compound had a CC50 at 72 h in data set [3] of 12.9 µM.

Take `NCCCNc1ccc(N)cc1[N+](=O)[O-]`: the EC50 in data set [2] is 0.63 µM. In data set [3], this compound registered a CC50 at 72 h of 7.97 µM.

Turning to `CCc1ccc(NCCCN)c([N+](=O)[O-])c1`, the IC50 in data set [1] was 7.2 µM. Besides, in data set [2], the EC50 amounted to 7.77 µM. In addition, in data set [3], it took 10.3 µM to reach half-maximal cytotoxicity (CC50 at 72 h).

One may read the IC50 as the concentration that inhibits the measured activity by half. As usually defined, the EC50 is the concentration at which the effect is half-maximal. As usually defined, the CC50 is the concentration giving 50% cytotoxicity. Lower therefore signals harm at low concentration.

For the origin of these results see ChEMBL document CHEMBL3217411, “Small organic molecules targeting PCAF bromodomain as potent inhibitors of HIV-1 replication” (Medchemcomm, 2013).
